tested on: Key Grass and Sedge Weeds as well as Grass Crops; assay: Post-emergent Test II herbicidal activity (Table 6); type: in vivo; conditions: post-emergence, 336 h, CYPES: yellow nutsedge (Cyperus esculentus), 70 g ai/ha, read-out: Visual Growth Reduction (%) 14 Days After Application, CYPES
Method in brief: (§1)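 Post-emergence foliar spray, 187 L/ha, track sprayer at 43 cm above canopy. Carrier: acetone/water/IPA/DMSO/Atplus 411F/Triton X-155. Plants at 1st–2nd true leaf; subirrigated afterwards; % injury scored visually at 14 d.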

Row | Compound | pest or weed control at 70 g/ha [%]
1 | Nc1cc(-c2ccc(Br)c(F)c2F)nc(C(=O)O)c1Cl [Compound 91] | 95 to 100

same assay, conditions: post-emergence, 336 h, CYPES: yellow nutsedge (Cyperus esculentus), 140 g ai/ha, read-out: Visual Growth Reduction (%) 14 Days After Application, CYPES

Row | Compound | pest or weed control at 140 g/ha [%]
2 | Nc1cc(-c2ccc(Br)c(F)c2F)nc(C(=O)O)c1Cl [Compound 91] | 95 to 100

same assay, conditions: post-emergence, 336 h, DIGSA: crabgrass (Digitaria sanguinalis), 70 g ai/ha, read-out: Visual Growth Reduction (%) 14 Days After Application, DIGSA

Row | Compound | pest or weed control at 70 g/ha [%]
3 | Nc1cc(-c2ccc(Br)c(F)c2F)nc(C(=O)O)c1Cl [Compound 91] | 85 to 94

same assay, conditions: post-emergence, 336 h, DIGSA: crabgrass (Digitaria sanguinalis), 140 g ai/ha, read-out: Visual Growth Reduction (%) 14 Days After Application, DIGSA

Row | Compound | pest or weed control at 140 g/ha [%]
4 | Nc1cc(-c2ccc(Br)c(F)c2F)nc(C(=O)O)c1Cl [Compound 91] | 85 to 94

same assay, conditions: post-emergence, 336 h, ECHCG: barnyardgrass (Echinochloa crus-galli), 70 g ai/ha, read-out: Visual Growth Reduction (%) 14 Days After Application, ECHCG

Row | Compound | pest or weed control at 70 g/ha [%]
5 | Nc1cc(-c2ccc(Br)c(F)c2F)nc(C(=O)O)c1Cl [Compound 91] | 95 to 100

same assay, conditions: post-emergence, 336 h, ECHCG: barnyardgrass (Echinochloa crus-galli), 140 g ai/ha, read-out: Visual Growth Reduction (%) 14 Days After Application, ECHCG

Row | Compound | pest or weed control at 140 g/ha [%]
6 | Nc1cc(-c2ccc(Br)c(F)c2F)nc(C(=O)O)c1Cl [Compound 91] | 95 to 100

same assay, conditions: post-emergence, 336 h, ORYSA: rice (Oryza sativa), crop, 70 g ai/ha, read-out: Visual Growth Reduction (%) 14 Days After Application, ORYSA

Row | Compound | pest or weed control at 70 g/ha [%]
7 | Nc1cc(-c2ccc(Br)c(F)c2F)nc(C(=O)O)c1Cl [Compound 91] | 0 to 29

same assay, conditions: post-emergence, 336 h, ORYSA: rice (Oryza sativa), crop, 140 g ai/ha, read-out: Visual Growth Reduction (%) 14 Days After Application, ORYSA

Row | Compound | pest or weed control at 140 g/ha [%]
8 | Nc1cc(-c2ccc(Br)c(F)c2F)nc(C(=O)O)c1Cl [Compound 91] | 0 to 29

same assay, conditions: post-emergence, 336 h, SETFA: giant foxtail (Setaria faberi), 70 g ai/ha, read-out: Visual Growth Reduction (%) 14 Days After Application, SETFA

Row | Compound | pest or weed control at 70 g/ha [%]
9 | Nc1cc(-c2ccc(Br)c(F)c2F)nc(C(=O)O)c1Cl [Compound 91] | 75 to 84

same assay, conditions: post-emergence, 336 h, SETFA: giant foxtail (Setaria faberi), 140 g ai/ha, read-out: Visual Growth Reduction (%) 14 Days After Application, SETFA

Row | Compound | pest or weed control at 140 g/ha [%]
10 | Nc1cc(-c2ccc(Br)c(F)c2F)nc(C(=O)O)c1Cl [Compound 91] | 85 to 94

same assay, conditions: post-emergence, 336 h, SORVU: grain sorghum (Sorghum vulgare), 70 g ai/ha, read-out: Visual Growth Reduction (%) 14 Days After Application, SORVU

Row | Compound | pest or weed control at 70 g/ha [%]
11 | Nc1cc(-c2ccc(Br)c(F)c2F)nc(C(=O)O)c1Cl [Compound 91] | 75 to 84

same assay, conditions: post-emergence, 336 h, SORVU: grain sorghum (Sorghum vulgare), 140 g ai/ha, read-out: Visual Growth Reduction (%) 14 Days After Application, SORVU

Row | Compound | pest or weed control at 140 g/ha [%]
12 | Nc1cc(-c2ccc(Br)c(F)c2F)nc(C(=O)O)c1Cl [Compound 91] | 75 to 84

same assay, conditions: post-emergence, 336 h, TRZSS (wheat, Triticum aestivum), crop, 70 g ai/ha, read-out: Visual Growth Reduction (%) 14 Days After Application, TRZSS

Row | Compound | pest or weed control at 70 g/ha [%]
13 | Nc1cc(-c2ccc(Br)c(F)c2F)nc(C(=O)O)c1Cl [Compound 91] | 45 to 59

same assay, conditions: post-emergence, 336 h, TRZSS (wheat, Triticum aestivum), crop, 140 g ai/ha, read-out: Visual Growth Reduction (%) 14 Days After Application, TRZSS

Row | Compound | pest or weed control at 140 g/ha [%]
14 | Nc1cc(-c2ccc(Br)c(F)c2F)nc(C(=O)O)c1Cl [Compound 91] | 45 to 59

same assay, conditions: post-emergence, 336 h, ZEAMX: maize, corn (Zea mays), crop, 70 g ai/ha, read-out: Visual Growth Reduction (%) 14 Days After Application, ZEAMX

Row | Compound | pest or weed control at 70 g/ha [%]
15 | Nc1cc(-c2ccc(Br)c(F)c2F)nc(C(=O)O)c1Cl [Compound 91] | 85 to 94

same assay, conditions: post-emergence, 336 h, ZEAMX: maize, corn (Zea mays), crop, 140 g ai/ha, read-out: Visual Growth Reduction (%) 14 Days After Application, ZEAMX

Row | Compound | pest or weed control at 140 g/ha [%]
16 | Nc1cc(-c2ccc(Br)c(F)c2F)nc(C(=O)O)c1Cl [Compound 91] | 85 to 94

tested on: Key Broadleaf Weed and Crop Species; assay: Post-emergent Test II herbicidal activity (Table 5); type: in vivo; conditions: post-emergence, 336 h; ABUTH: velvetleaf (Abutilon theophrasti); application rate 70 g ai/ha; 14 days after application; read-out: Visual Growth Reduction (%) 14 Days After Application, ABUTH
Method in brief: as §1

Row | Compound | pest or weed control at 70 g/ha [%]
17 | Nc1cc(-c2ccc(Br)c(F)c2F)nc(C(=O)O)c1Cl [Compound 91] | 85 to 94

same assay, conditions: post-emergence, 336 h; ABUTH: velvetleaf (Abutilon theophrasti); application rate 140 g ai/ha; 14 days after application; read-out: Visual Growth Reduction (%) 14 Days After Application, ABUTH

Row | Compound | pest or weed control at 140 g/ha [%]
18 | Nc1cc(-c2ccc(Br)c(F)c2F)nc(C(=O)O)c1Cl [Compound 91] | 95 to 100

same assay, conditions: post-emergence, 336 h; AMARE: redroot pigweed (Amaranthus retroflexus); application rate 70 g ai/ha; 14 days after application; read-out: Visual Growth Reduction (%) 14 Days After Application, AMARE

Row | Compound | pest or weed control at 70 g/ha [%]
19 | Nc1cc(-c2ccc(Br)c(F)c2F)nc(C(=O)O)c1Cl [Compound 91] | 95 to 100

same assay, conditions: post-emergence, 336 h; AMARE: redroot pigweed (Amaranthus retroflexus); application rate 140 g ai/ha; 14 days after application; read-out: Visual Growth Reduction (%) 14 Days After Application, AMARE

Row | Compound | pest or weed control at 140 g/ha [%]
20 | Nc1cc(-c2ccc(Br)c(F)c2F)nc(C(=O)O)c1Cl [Compound 91] | 95 to 100

same assay, conditions: post-emergence, 336 h; BRSNN: oilseed-rape, canola (Brassica napus); application rate 70 g ai/ha; 14 days after application; read-out: Visual Growth Reduction (%) 14 Days After Application, BRSNN

Row | Compound | pest or weed control at 70 g/ha [%]
21 | Nc1cc(-c2ccc(Br)c(F)c2F)nc(C(=O)O)c1Cl [Compound 91] | 75 to 84

same assay, conditions: post-emergence, 336 h; BRSNN: oilseed-rape, canola (Brassica napus); application rate 140 g ai/ha; 14 days after application; read-out: Visual Growth Reduction (%) 14 Days After Application, BRSNN

Row | Compound | pest or weed control at 140 g/ha [%]
22 | Nc1cc(-c2ccc(Br)c(F)c2F)nc(C(=O)O)c1Cl [Compound 91] | 85 to 94

same assay, conditions: post-emergence, 336 h; CHEAL: lambsquarters (Chenopodium album); application rate 70 g ai/ha; 14 days after application; read-out: Visual Growth Reduction (%) 14 Days After Application, CHEAL

Row | Compound | pest or weed control at 70 g/ha [%]
23 | Nc1cc(-c2ccc(Br)c(F)c2F)nc(C(=O)O)c1Cl [Compound 91] | 85 to 94

same assay, conditions: post-emergence, 336 h; CHEAL: lambsquarters (Chenopodium album); application rate 140 g ai/ha; 14 days after application; read-out: Visual Growth Reduction (%) 14 Days After Application, CHEAL

Row | Compound | pest or weed control at 140 g/ha [%]
24 | Nc1cc(-c2ccc(Br)c(F)c2F)nc(C(=O)O)c1Cl [Compound 91] | 85 to 94

same assay, conditions: post-emergence, 336 h; EPHHL: wild poinsettia (Euphorbia heterophylla); application rate 70 g ai/ha; 14 days after application; read-out: Visual Growth Reduction (%) 14 Days After Application, EPHHL

Row | Compound | pest or weed control at 70 g/ha [%]
25 | Nc1cc(-c2ccc(Br)c(F)c2F)nc(C(=O)O)c1Cl [Compound 91] | 95 to 100

same assay, conditions: post-emergence, 336 h; EPHHL: wild poinsettia (Euphorbia heterophylla); application rate 140 g ai/ha; 14 days after application; read-out: Visual Growth Reduction (%) 14 Days After Application, EPHHL

Row | Compound | pest or weed control at 140 g/ha [%]
26 | Nc1cc(-c2ccc(Br)c(F)c2F)nc(C(=O)O)c1Cl [Compound 91] | 95 to 100

same assay, conditions: post-emergence, 336 h; HELAN: sunflower (Helianthus annuus); application rate 70 g ai/ha; 14 days after application; read-out: Visual Growth Reduction (%) 14 Days After Application, HELAN

Row | Compound | pest or weed control at 70 g/ha [%]
27 | Nc1cc(-c2ccc(Br)c(F)c2F)nc(C(=O)O)c1Cl [Compound 91] | 85 to 94

same assay, conditions: post-emergence, 336 h; HELAN: sunflower (Helianthus annuus); application rate 140 g ai/ha; 14 days after application; read-out: Visual Growth Reduction (%) 14 Days After Application, HELAN

Row | Compound | pest or weed control at 140 g/ha [%]
28 | Nc1cc(-c2ccc(Br)c(F)c2F)nc(C(=O)O)c1Cl [Compound 91] | 85 to 94

same assay, conditions: post-emergence, 336 h; VIOTR: wild pansy (Viola tricolor); application rate 70 g ai/ha; 14 days after application; read-out: Visual Growth Reduction (%) 14 Days After Application, VIOTR

Row | Compound | pest or weed control at 70 g/ha [%]
29 | Nc1cc(-c2ccc(Br)c(F)c2F)nc(C(=O)O)c1Cl [Compound 91] | 95 to 100

same assay, conditions: post-emergence, 336 h; VIOTR: wild pansy (Viola tricolor); application rate 140 g ai/ha; 14 days after application; read-out: Visual Growth Reduction (%) 14 Days After Application, VIOTR

Row | Compound | pest or weed control at 140 g/ha [%]
30 | Nc1cc(-c2ccc(Br)c(F)c2F)nc(C(=O)O)c1Cl [Compound 91] | 95 to 100

tested on: not given; assay: not given; conditions: not given

Row | melting point [°C] | Compound
31 | 173 to 175 | Nc1cc(-c2ccc(Br)c(F)c2F)nc(C(=O)O)c1Cl [Compound 91]

From patent US9113629B2, “4-amino-6-(4-substituted-phenyl)-picolinates and 6-amino-2-(4-substituted-phenyl)-pyrimidine-4-carboxylates and their use as herbicides” (DOW AGROSCIENCES LLC, priority 2013, dated 2015)
